Measured values published in patent US20140343104A1, “OSTEOGENESIS PROMOTER AND USE THEREOF” (National University Corporation Nagoya University, priority 2011, published 2014).

Legend:
luciferase protein = assay: double luciferase assay, pGL4.10 basic vector and phRL vector cotransfected into C3H10T1/2 cells; format: cell-based; conditions: pGL4.10 [luc2/SV40] basic vector and phRL [hRluc/TK] vector
Procedure: In order to exclude the possibility of the potential agent to increase the enzymatic activity of luciferase protein, the pGL4. 10 basic vector (pGL4.10 [luc2/SV40] basic vector) and phRLvector (phRL [hRluc/TK] vector) were cotransfected into the C3H10T1/2 cells, the potential agents were individually added, and double luciferase assay was performed.

[1] = test system: P1 promoter region of the human Runx2 gene; assay: RUNX2 P1 promoter luciferase reporter assay in BMP-2-induced C3H10T1/2 stable expression strain (primary, secondary, tertiary screening); format: cell-based; conditions: five times of screening (N=6/time); average of 5 times or even at once
Text: Existing drugs which increase the promoter activity of the transcription factor Runx2 were exhaustively searched by luciferase assay. Firstly, the P1 promoter region of the human Runx2 gene was inserted into the multiple cloning site of the pGL4 luciferase reporter vector (Promega K.K.) (pGL4.10 vector). The pGL4.10 vector was transfected into the undifferentiated mouse mesenchymal cell line C3H10T1/2, and selectively cultured on a G418-containing medium, thereby establishing the stable expression strain. The cells were seeded on a 96-well (day 1), and human BMP-2 was added to each well on day 2, thereby inducing differentiation into osteoblasts. On the following day, the test compounds (10 μM) composing Prestwick Chemical Library (registered trademark) (Prestwick Chemical Ltd.) were added, and the cells were collected 24 hours after, and subjected to luciferase assay.
In addition to the compounds which made the reporter activity of luciferase (average of 5 times) 1.5 times that of the control, those made the activity 1.5 times than that of the control even at once were selected.

[2] = test system: P1 promoter region of the human Runx2 gene; assay: as above; format: cell-based; conditions: three times of screening (N=6/time) at 8 levels of concentration
[3] = test system: alkaline phosphatase (ALP) activity; assay: ALP activity by ELISA in BMP-2-induced C3H10T1/2 cells; format: cell-based, mouse; conditions: day 5 after the addition of PPI, FIG. 8
Procedure: (§1) Human osteogenic sarcoma cells (HOSs) and the C3H10T1/2 cells were used in the experiment. Firstly, the cells (HOS or C3H10T1/2) were seeded on a 12-well plate (day 1). When the C3H10T1/2 cells were used, the human BMP-2 was added to each well on the following day. On day 3, PPI (rabeprazole or lansoprazole) was added and cultured for 24 hours, and the cells were collected. Total RNAs were prepared from the collected cells, and the expression of the Runx2 gene was analyzed by the quantitative PCR method.
(§2) Using the HOS cells and the C3H10T1/2 cells cultured in the same manner as in 4-1, and the expression level of the Runx2 protein and the ALP activity which is the index of bone differentiation were evaluated over time. The expression level of the Runx2 protein was evaluated by the Western blot test, and the ALP activity was measured by the ELISA method.

Runx2 gene [4] = assay: Runx2 gene expression by quantitative PCR in HOS cells; format: cell-based, human; conditions: PPI cultured for 24 hours, FIG. 1
Procedure: as §1

Runx2 gene [5] = assay: Runx2 gene expression in human bone marrow mesenchymal stem cells; format: cell-based; conditions: PPI-containing bone-inducing media, P0, P1, P2, FIG. 10
Procedure: On the other hand, the human bone marrow mesenchymal stem cells (POIETICS (registered trademark), Lonza Ltd.) were subjected to primary culture (P0) and subcultivation (P1, P2) in the PPI-containing bone-inducing media (culture media containing PPI, dexamethasone, β-glycerophosphoric acid, and ascorbic acid). The bone-inducing medium was replaced every three days. The cells were collected when each of P0, P1, and P2 reached confluent, and the expression of the Runx2 gene was analyzed in the same manner as in 4-1.

Runx2 gene [6] = assay: Runx2 gene expression in rat cultured bone marrow mesenchymal cells; format: cell-based; conditions: bone-inducing media, P1, P2, P3, 24 hours after the addition of PPI, FIG. 9
Procedure: Mesenchymal cells were prepared from a rat bone marrow solution, and cultured (cultured bone marrow mesenchymal cells). Subsequently, the cells were subcultivated (P1, P2, and P3) in bone-inducing media (dexamethasone, β-glycerophosphoric acid, and ascorbic acid were added the culture media). PPI was added when each of the P1, P2, and P3 reached confluent. The cells were collected 24 hours after the addition of PPI, and the expression of the Runx2 gene was analyzed in the same manner as in 4-1.

Runx2 gene [7] = assay: Runx2 gene expression by quantitative PCR in BMP-2-induced C3H10T1/2 cells; format: cell-based, mouse; conditions: C3H10T1/2 cells differentiated by BMP-2; PPI cultured for 24 hours; FIG. 2
Procedure: as §1

[8] = test system: alkaline phosphatase (ALP) activity; assay: ALP activity by ELISA in HOS cells; format: cell-based, human; conditions: day 6 after the addition of PPI, FIG. 7
Procedure: as §1, §2

Runx2 protein [9] = assay: Runx2 protein expression by Western blot in BMP-2-induced C3H10T1/2 cells; format: cell-based, mouse; conditions: C3H10T1/2 cells differentiated by BMP-2; 48 hours and 78 hours after the addition of PPI; relative to Gapdh; FIGS. 5 and 6
Procedure: as §1, §2

Runx2 protein [10] = assay: Runx2 protein expression by Western blot in HOS cells; format: cell-based, human; conditions: 48 hours and 78 hours after the addition of PPI, relative to Gapdh, FIGS. 3 and 4
Procedure: as §1, §2

rat femur defect model = assay: rat femur defect model, soft X-ray; format: in vivo; conditions: SD rat femur 3 mm defect, ad libitum oral administration
Text: The left hind femur of an SD rat (male, 9 weeks old) was exposed by anterolateral approach, and an external fixator was installed. The diaphysis was cut by an oscillating saw, (defect amount 3 mm), and the bone was elongated in a single stage, and used as a bone defect model (defect group N=6, control group N=6). Lansoprazole was given to the bone defect model by ad libitum oral administration (about 10 to 20 times the usual human dose), and the bone defect part was photographed periodically by soft X-ray. In addition, the body weight and drinking water amount were periodically measured.

Row | secondary screening: reporter activity of luciferase 1.5 times that of the control [1] | tertiary screening: concentration dependency of the promotion of RUNX2 promoter activity [2] | Structure (SMILES) | specificity of RUNX2 promoter promotion versus increase of luciferase activity (luciferase protein) | other results
1 | selected | concentration dependency | COc1ccc2cc(CCC(C)=O)ccc2c1 [nabumetone, 4-(6-methoxynaphthalen-2-yl)butan-2-one] | specifically promote the RUNX2 promoter activity | –
2 | selected | – | COC(=O)Nc1nc2ccc(SC(C)C)cc2[nH]1 [methiazole, methyl n-(6-propan-2-ylsulfanyl-1H-benzimidazol-2-yl) carbamate] | – | –
3 | selected | concentration dependency | Cc1c(OCC(F)(F)F)ccnc1C[S+]([O-])c1nc2ccccc2[nH]1 (stereo not shown) [lansoprazole, 2-[[3-methyl-4-(2,2,2-trifluoroethoxy)pyridin-2-yl]methylsulfinyl]-1H-benzimidazole] | specifically promote the RUNX2 promoter activity | ALP activity [3]: increase effect; induction of expression of the Runx2 gene (Runx2 gene [4]): concentration-dependent activity of inducing the expression of the Runx2 gene; induction of the expression of the Runx2 gene (Runx2 gene [5]): expression inducing effect; induction of the expression of the Runx2 gene (Runx2 gene [6]): expression inducing effect; induction of expression of the Runx2 gene (Runx2 gene [7]): concentration-dependent activity of inducing the expression of the Runx2 gene; ALP activity [8]: increase effect; osteogenesis promoting effect (rat femur defect model): marked osteogenesis promoting effect; animals showing good osteogenesis (bone adhesion on soft X-ray) (rat femur defect model; about 10 to 20 times the usual human dose, 12 weeks, N=6): 3/6; Runx2 protein expression level (Runx2 protein [9]): expression inducing effect; Runx2 protein expression level (Runx2 protein [10]): expression inducing effect
4 | selected | – | Cl.Nc1ccc(N=Nc2ccccc2)c(N)n1 [phenazopyridine hydrochloride, 3-phenyldiazenylpyridine-2,6-diamine hydrochloride] | – | –

Second part, the compound before the results:

Row | Structure (SMILES) | secondary screening: reporter activity of luciferase 1.5 times that of the control [1] | tertiary screening: concentration dependency of the promotion of RUNX2 promoter activity [2] | specificity of RUNX2 promoter promotion versus increase of luciferase activity (luciferase protein) | other results
5 | COc1ccc(/C=C/C(=O)Nc2ccccc2C(=O)O)cc1OC [tranilast, 2-[[(E)-3-(3,4-dimethoxyphenyl)prop-2-enoyl]amino]benzoic acid] | selected | concentration dependency | slightly increase the luciferase activity | –
6 | O=C(O)CCNC(=O)c1ccc(/N=N/c2ccc(O)c(C(=O)O)c2)cc1 [balsalazide sodium, disodium (3Z)-3-[[4-(2-carboxylatoethylcarbamoyl)phenyl]hydrazinylidene]-6-oxocyclohexa-1,4-diene-1-carboxylate dehydrate] | selected | – | – | –
7 | c1ccc2[nH]c(-c3cscn3)nc2c1 [tiabendazole, 4-(1H-benzimidazol-2-yl)-1,3-thiazole] | selected | – | – | –
8 | CC(C(=O)O)c1ccc(N2Cc3ccccc3C2=O)cc1 (stereo not shown) [indoprofen, 2-[4-(3-oxo-1H-isoindol-2-yl)phenyl]propanoic acid] | selected | – | – | –
9 | COCCCOc1ccnc(C[S+]([O-])c2nc3ccccc3[nH]2)c1C (stereo not shown) [rabeprazole, 2-[[4-(3-methoxypropoxy)-3-methylpyridin-2-yl]methylsulfinyl]-1H-benzimidazole] | selected | concentration dependency | specifically promote the RUNX2 promoter activity | ALP activity [3]: increase effect; induction of expression of the Runx2 gene (Runx2 gene [4]): concentration-dependent activity of inducing the expression of the Runx2 gene; induction of the expression of the Runx2 gene (Runx2 gene [5]): expression inducing effect; induction of the expression of the Runx2 gene (Runx2 gene [6]): expression inducing effect; induction of expression of the Runx2 gene (Runx2 gene [7]): concentration-dependent activity of inducing the expression of the Runx2 gene; ALP activity [8]: increase effect; Runx2 protein expression level (Runx2 protein [9]): expression inducing effect; Runx2 protein expression level (Runx2 protein [10]): expression inducing effect
10 | Cc1oncc1C(=O)Nc1ccc(C(F)(F)F)cc1 [leflunomide, 5-methyl-N-[4-(trifluoromethyl)phenyl]-1,2-oxazole-4-carboxamide] | selected | concentration dependency | specifically promote the RUNX2 promoter activity | –
11 | CCCSc1ccc2nc(NC(=O)OC)[nH]c2c1 [albendazole, methyl n-(6-propylsulfanyl-1H-benzimidazol-2-yl) carbamate] | selected | – | – | –
12 | O=c1cc(-c2ccc(O)c(O)c2)oc2cc(O)cc(O)c12 [luteolin, 2-(3,4-dihydroxyphenyl)-5,7-dihydroxychromen-4-one] | selected | – | – | –
13 | CC(C(=O)O)c1ccc(C(=O)c2ccccc2)s1 (stereo not shown) [tiaprofenic acid, 2-(5-benzoylthiophen-2-yl)propanoic acid] | selected | concentration dependency | specifically promote the RUNX2 promoter activity | –
